Experimental findings from article PMC9237828, “Chemically Tuning Resveratrol for the Effective Killing of Gram-Positive Pathogens” (Journal of Natural Products, 2022) are described below.

Converted amounts (≈) assume the structure as drawn.

Experiment [1] has as its system panel of aerobic and anaerobic Gram-positive bacteria. In words: organism not typed. Format: cell-based.
A further experiment relates to C. tetani CECT4629. Briefly: microbe, parasite or virus in culture. Format: cell-based. Conditions: Clostridium tetani, CECT4629, 24 h, read-out: Minimal Inhibition Concentration (MIC) C. tetani CECT4629.
The next experiment has as its system C. perfringens CECT376. Briefly: microbe, parasite or virus in culture. Format: cell-based. Conditions: Clostridium perfringens, CECT376, 24 h, read-out: Minimal Inhibition Concentration (MIC) C. perfringens CECT376.
A further experiment concerns C. botulinum CECT551. In words: microbe, parasite or virus in culture. It counts as cell-based. Conditions: Clostridium botulinum, CECT551, 24 h, read-out: Minimal Inhibition Concentration (MIC) C. botulinum CECT551.
The test system of another experiment is C. beijerinckii B504. Briefly: MIC test, anaerobes. Particulars: Clostridium beijerinckii, B504, 24 h; read-out: Minimal Inhibition Concentration (MIC) C. beijerinckii B504. Format: cell-based. The protocol:
(§1) The resveratrol derivatives were serially diluted in cMHB (BD Difco) in 96-well microplates. Plates were then inoculated with the indicator bacteria at a final concentration of 5 × 10^5 CFU/mL and incubated at 37 °C for 20 h. In the case of the anaerobic bacteria (Clostridium and Clostridioides), the test was performed following the recommendation of CLSI for anaerobes[77] but using RCM medium instead of cMHB. The cultures were cultivated inside an anaerobic chamber at 37 °C for 24 h. All the tests were performed in triplicate.

A further experiment deals with C. ihumii AP5. Briefly: MIC test, anaerobes. Format: cell-based. Particulars: 24 h; read-out: Minimal Inhibition Concentration (MIC) C. ihumii AP5. As for the experimental part: as §1
Another experiment relates to B. cereus ATCC10987. Briefly: microbe, parasite or virus in culture. It counts as cell-based, Bacillus cereus. Conditions: Bacillus cereus, ATCC10987, 20 h, read-out: Minimal Inhibition Concentration (MIC) B. cereus ATCC10987.
The subject of a further experiment is B. cereus ATCC14579. Briefly: microbe, parasite or virus in culture. It counts as cell-based, Bacillus cereus. Particulars: Bacillus cereus, ATCC14579, 20 h, read-out: Minimal Inhibition Concentration (MIC) B. cereus ATCC14579.
For a further experiment, the system named is E. faecium LMG16003. Briefly: Combined action with antibiotics (MIC reduction, checkerboard FICI). It counts as cell-based. Conditions: for FICI, antibiotic with 17 / FICI, antibiotic with 15: fractional inhibitory concentration index, EUCAST, * means relevant FICI values; for MIC of antibiotic in combination with RES: RES at 8 μM.
Another experiment concerns S. aureus LMG8224. The description is as above. Format: cell-based, Staphylococcus aureus. Conditions: for MIC of antibiotic in combination with RES: RES at 4 μM; for FICI, antibiotic with 15 / FICI, antibiotic with 17: fractional inhibitory concentration index, EUCAST, * means relevant FICI values.
The subject of a further experiment is E. faecalis LMG08222. In words: microbe, parasite or virus in culture. It counts as cell-based, Enterococcus faecalis. Conditions: Enterococcus faecalis, LMG08222, 20 h, read-out: Minimal Inhibition Concentration (MIC) E. faecalis LMG08222.
The subject of the next experiment is E. faecalis V583. In words: microbe, parasite or virus in culture. Format: cell-based, Enterococcus faecalis. Conditions: Enterococcus faecalis, V583, 20 h, read-out: Minimal Inhibition Concentration (MIC) E. faecalis V583.

`COc1cc(O)cc(/C=C/c2ccc(O[C@H]3O[C@@H](C(=O)O)[C@H](O)[C@@H](O)[C@@H]3O)cc2)c1` [compound 29]: the “antibacterial activity against the Gram-positive panel” value (“antibacterial activity” below) in [1] is listed as “did not show antibiotic activity”.
Take `CC(C)(C)[Si](C)(C)Oc1ccc(/C=C/c2cc(OS(=O)(=O)O)cc(OS(=O)(=O)O)c2)cc1` [compound 34, 3,5-Disulfate-4′-tert-butyldimethylsilyl resveratrol]: the MIC is 5.3 ± 1.3 µM (≈ 2.66 µg/mL) with C. tetani CECT4629; 128 µM (≈ 64.3 µg/mL) with C. perfringens CECT376; 53.3 ± 10.6 µM (≈ 26.8 µg/mL) with C. botulinum CECT551; 32 µM (≈ 16.1 µg/mL) in the experiment with C. beijerinckii B504; 128 µM (≈ 64.3 µg/mL) in the experiment with C. ihumii AP5.
With `CC[Si](CC)(CC)Oc1cc(/C=C/c2ccc(O)cc2)cc(O[Si](CC)(CC)CC)c1` [compound 21], the “antibacterial activity” value in experiment [1] was “not active or displayed very low antibacterial activity”.
On to `CCCCCCCC(=O)OC[C@H]1O[C@@H](Oc2cc(O)cc(/C=C/c3ccc(O)cc3)c2)[C@H](O)[C@@H](O)[C@@H]1O` [compound 3], for which the MIC was 21.3 ± 5.3 µM (≈ 11 µg/mL) in the experiment with C. tetani CECT4629, 32 µM (≈ 16.5 µg/mL) in the experiment on C. botulinum CECT551 and 32 µM (≈ 16.5 µg/mL) in the experiment with C. beijerinckii B504.
On to `CC(C)(C)[Si](C)(C)Oc1ccc(/C=C/c2cc(O)cc(O[Si](C)(C)C(C)(C)C)c2)cc1` [compound 19], for which the MIC stood at 5.3 ± 1.3 µM (≈ 2.42 µg/mL) in the experiment with C. tetani CECT4629; 128 µM (≈ 58.5 µg/mL) in the experiment with C. perfringens CECT376; 53.3 ± 10.6 µM (≈ 24.3 µg/mL) in the experiment on C. botulinum CECT551; 32 µM (≈ 14.6 µg/mL) in the experiment with C. beijerinckii B504; 128 µM (≈ 58.5 µg/mL) in the experiment with C. ihumii AP5. Further, the “antibacterial activity” value in experiment [1] was “not active or displayed very low antibacterial activity”.
For Resveratrol-3-glucuronate [compound 8], the “antibacterial activity” value in experiment [1] is on record as “did not show antibiotic activity”.
Take `CCOc1cc(O)cc(/C=C/c2ccc(O)cc2)c1` [compound 10]: the MIC in the experiment on B. cereus ATCC10987 and in the experiment with B. cereus ATCC14579 was 128 µM (≈ 32.8 µg/mL) each time.
With `NCC[C@H](O)C(=O)N[C@@H]1C[C@H](N)[C@@H](O[C@H]2O[C@H](CN)[C@@H](O)[C@H](O)[C@H]2O)[C@H](O)[C@H]1O[C@H]1O[C@H](CO)[C@@H](O)[C@H](N)[C@H]1O` [Ami, amikacin], the “MIC of antibiotic alone (Ab)” value in the experiment on E. faecium LMG16003 was more than 32 µM. The “MIC of antibiotic in combination with 15” value with S. aureus LMG8224 (15 at 2 μM) turned out to be 2 ± 0 µM. Moreover, the “MIC of antibiotic in combination with 15” value with S. aureus LMG8224 (15 at 4 μM) is 0.5 ± 0 µM. Besides, the “MIC of antibiotic in combination with 17” value with S. aureus LMG8224 (17 at 2 μM) was found to be 3.3 ± 0.5 µM. Moreover, the “MIC of antibiotic in combination with 17” value with S. aureus LMG8224 (17 at 4 μM) turned out to be 0.8 ± 0.1 µM. In the experiment on S. aureus LMG8224, the “MIC of antibiotic in combination with RES” value (from here on “MIC of antibiotic … with RES”) was 8 ± 0 µM; the “MIC of antibiotic alone (Ab)” value stood at 8 ± 0 µM; the “FICI, antibiotic with 15” value stood at 0.31; the “FICI, antibiotic with 17” value was determined as 0.60.
For `CC(C)[Si](Oc1ccc(/C=C/c2cc(O[Si](C(C)C)(C(C)C)C(C)C)cc(OS(=O)(=O)O)c2)cc1)(C(C)C)C(C)C` [compound 36, 3-Sulfate-4′,5-diisopropylsilyl resveratrol], the MIC in the experiment on E. faecalis LMG08222 and in the experiment on E. faecalis V583 was 128 µM (≈ 79.5 µg/mL) in each case.
As to `NC[C@H]1O[C@H](O[C@H]2[C@H](O)[C@@H](O[C@H]3O[C@H](CO)[C@@H](O)[C@H](N)[C@H]3O)[C@H](N)C[C@@H]2N)[C@H](O)[C@@H](O)[C@@H]1O` [Kan, kanamycin], the figures for the “MIC of antibiotic in combination with 17” value with E. faecium LMG16003 (17 at 4 μM), with S. aureus LMG8224 (17 at 2 μM) and in the experiment with S. aureus LMG8224 (17 at 4 μM) were 32 ± 0 µM, 2 ± 0 µM and 1 ± 0 µM, respectively. For the same compound, the “MIC of antibiotic alone (Ab)” value with E. faecium LMG16003 is more than 32 µM; in the experiment with S. aureus LMG8224 it was 4 ± 0 µM. Besides, the “FICI, antibiotic with 17” value with E. faecium LMG16003 is listed as 1*; in the experiment with S. aureus LMG8224 it was 0.75. Further, the “MIC of antibiotic in combination with 15” value with S. aureus LMG8224 (15 at 2 μM) came out at 2 ± 0 µM; in the experiment with S. aureus LMG8224 (15 at 4 μM) it was 0.6 ± 0.1 µM. In addition, in the experiment with S. aureus LMG8224, the “MIC of antibiotic … with RES” value is 4 ± 0 µM. Besides, in the experiment with S. aureus LMG8224, the “FICI, antibiotic with 15” value was 0.41.
For the compound `CC(C)[Si](Oc1ccc(/C=C/c2cc(O[Si](C(C)C)(C(C)C)C(C)C)cc(O[Si](C(C)C)(C(C)C)C(C)C)c2)cc1)(C(C)C)C(C)C` [compound 22], the “antibacterial activity” value in experiment [1] is recorded as “not active or displayed very low antibacterial activity”.
For the compound bacitracin, the “MIC of antibiotic in combination with 15” value with E. faecium LMG16003 (15 at 4 μM) stood at 16 ± 0 µM; with E. faecium LMG16003 (15 at 8 μM), 0.3 ± 0.2 µM; with S. aureus LMG8224 (15 at 2 μM), 26.6 ± 3.7 µM; with S. aureus LMG8224 (15 at 4 μM), 4 ± 0 µM. In addition, the “MIC of antibiotic in combination with 17” value worked out at 32 ± 0 µM in the experiment with E. faecium LMG16003 (17 at 2 μM), 16 ± 0 µM with E. faecium LMG16003 (17 at 4 μM) and 6.6 ± 0.9 µM with S. aureus LMG8224 (17 at 4 μM). Further, the “MIC of antibiotic … with RES” value in the experiment on E. faecium LMG16003 and with S. aureus LMG8224 was more than 32 µM in each case. The “MIC of antibiotic alone (Ab)” value in the experiment with E. faecium LMG16003 and with S. aureus LMG8224 was more than 32 µM each time. In addition, the “FICI, antibiotic with 15” value in the experiment on E. faecium LMG16003 is given as 0.27*; in the experiment with S. aureus LMG8224 it was 0.31*. The “FICI, antibiotic with 17” value in the experiment on E. faecium LMG16003 is recorded as 0.75*; in the experiment on S. aureus LMG8224, 0.41*.
As to `[H]/N=C(/N)N[C@H]1[C@H](O)[C@@H](O)[C@H](O[C@@H]2O[C@@H](C)[C@](O)(C=O)[C@H]2O[C@@H]2O[C@@H](CO)[C@H](O)[C@@H](O)[C@@H]2NC)[C@@H](N/C(N)=N\[H])[C@@H]1O` [Str, streptomycin], the “MIC of antibiotic alone (Ab)” value with E. faecium LMG16003 amounted to 32 ± 0 µM. Moreover, the “MIC of antibiotic in combination with 17” value in the experiment on S. aureus LMG8224 (17 at 2 μM) was determined as 8 ± 0 µM. Moreover, the “MIC of antibiotic in combination with 17” value in the experiment with S. aureus LMG8224 (17 at 4 μM) is 4 ± 0 µM. Moreover, in the experiment on S. aureus LMG8224, the “MIC of antibiotic … with RES” value came to 16 ± 0 µM; the “MIC of antibiotic alone (Ab)” value stood at 16 ± 0 µM; the “FICI, antibiotic with 17” value came out at 0.75.
For the compound `CC(C)(C)[Si](C)(C)Oc1cc(/C=C/c2ccc(O)cc2)cc(O[Si](C)(C)C(C)(C)C)c1` [compound 18], the “antibacterial activity” value in experiment [1] is given as “not active or displayed very low antibacterial activity”.
For the compound polymyxin B, the “MIC of antibiotic in combination with 15” value was 21.3 ± 3.7 µM in the experiment with E. faecium LMG16003 (15 at 4 μM), 1.8 ± 0.2 µM in the experiment with E. faecium LMG16003 (15 at 8 μM), 8 ± 0 µM in the experiment on S. aureus LMG8224 (15 at 2 μM) and 1 ± 0 µM in the experiment with S. aureus LMG8224 (15 at 4 μM). Besides, the “MIC of antibiotic … with RES” value in the experiment on E. faecium LMG16003 and with S. aureus LMG8224 was more than 32 µM throughout. The “MIC of antibiotic alone (Ab)” value with E. faecium LMG16003 and in the experiment on S. aureus LMG8224 was more than 32 µM throughout. Moreover, the “FICI, antibiotic with 15” value with E. faecium LMG16003 was 0.27*; with S. aureus LMG8224 it was 0.25*. The “MIC of antibiotic in combination with 17” value with S. aureus LMG8224 (17 at 2 μM) is 13.3 ± 1.8 µM; with S. aureus LMG8224 (17 at 4 μM), 6.6 ± 0.9 µM. In addition, in the experiment on S. aureus LMG8224, the “FICI, antibiotic with 17” value was 0.45*.
As to `O=S(=O)(O)Oc1ccc(/C=C/c2cc(O)cc(OS(=O)(=O)O)c2)cc1` [compound 7, Resveratrol 3,4′-disulfate], the “antibacterial activity” value in experiment [1] was “did not show antibiotic activity”.
